Results reported in patent US20250243180A1, “TARGETED PROTEIN DEGRADATION” (Monte Rosa Therapeutics AG, priority 2023, published 2025).
pEC50: −log10 of the molar value. Read-outs that look alike come from different tables or passages of the source.

Columns and labels:
CRBN-DDB1 = CRBN-DDB1 (Homo sapiens (Human), UniProt Q96SW2); assay: Compound binding to CRBN by HTRF assay
Outline: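 HTRF displacement of Cy5-thalidomide probe (100 nM) from His-tagged CRBN-DDB1 (2.5 nM) with anti-His terbium cryptate, in HEPES/NaCl/TCEP/EDTA/Tween20 buffer; 11-point 1:3 dilution series, 30 min at ambient temperature. Signal (665/620 nm) normalized to lenalidomide and DMSO controls; EC50 fitted, Ki by Cheng-Prusoff from geometric mean EC50.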

NEK7 = NEK7 (Homo sapiens (Human), UniProt Q8TDX7+Q96SW2); assay: NEK7 NanoBiT degradation assay in Cal51 NEK7 NanoBiT cell line; type: cell-based; settings: Cal51 NEK7 NanoBiT cells, 24 hours; for Dmax: CAL-51
Outline: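 Cal51 cells with CRISPR knock-in HiBiT-tagged endogenous NEK7 plus stable LgBiT, in live-cell Endurazine medium, seeded 16 h before dosing. Compounds at final 1 μM to 0.05 nM for 24 h at 37 °C, then luminescence read. Response normalized to plate controls and fitted with a 4-parameter logistic giving EC50.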

[1] = NEK7 degradation, read-out: NanoBiT Dmax
[2] = NEK7 degradation, read-out: NanoBiT DC50

Sequence of CRBN-DDB1 (Q96SW2 whole entry): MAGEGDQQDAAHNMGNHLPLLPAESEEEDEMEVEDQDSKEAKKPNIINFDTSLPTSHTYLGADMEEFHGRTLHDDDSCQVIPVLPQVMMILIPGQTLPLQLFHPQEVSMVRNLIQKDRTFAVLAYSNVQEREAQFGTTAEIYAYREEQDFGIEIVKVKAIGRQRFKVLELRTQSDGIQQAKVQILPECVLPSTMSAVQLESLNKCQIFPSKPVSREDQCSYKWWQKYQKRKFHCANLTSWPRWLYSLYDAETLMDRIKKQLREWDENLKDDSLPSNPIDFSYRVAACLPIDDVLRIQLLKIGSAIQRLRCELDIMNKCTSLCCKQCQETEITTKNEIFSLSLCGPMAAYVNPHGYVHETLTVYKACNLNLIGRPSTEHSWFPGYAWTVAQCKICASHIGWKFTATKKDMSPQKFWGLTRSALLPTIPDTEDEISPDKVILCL
Sequence of CRBN-DDB1 (Q16531 whole entry partner): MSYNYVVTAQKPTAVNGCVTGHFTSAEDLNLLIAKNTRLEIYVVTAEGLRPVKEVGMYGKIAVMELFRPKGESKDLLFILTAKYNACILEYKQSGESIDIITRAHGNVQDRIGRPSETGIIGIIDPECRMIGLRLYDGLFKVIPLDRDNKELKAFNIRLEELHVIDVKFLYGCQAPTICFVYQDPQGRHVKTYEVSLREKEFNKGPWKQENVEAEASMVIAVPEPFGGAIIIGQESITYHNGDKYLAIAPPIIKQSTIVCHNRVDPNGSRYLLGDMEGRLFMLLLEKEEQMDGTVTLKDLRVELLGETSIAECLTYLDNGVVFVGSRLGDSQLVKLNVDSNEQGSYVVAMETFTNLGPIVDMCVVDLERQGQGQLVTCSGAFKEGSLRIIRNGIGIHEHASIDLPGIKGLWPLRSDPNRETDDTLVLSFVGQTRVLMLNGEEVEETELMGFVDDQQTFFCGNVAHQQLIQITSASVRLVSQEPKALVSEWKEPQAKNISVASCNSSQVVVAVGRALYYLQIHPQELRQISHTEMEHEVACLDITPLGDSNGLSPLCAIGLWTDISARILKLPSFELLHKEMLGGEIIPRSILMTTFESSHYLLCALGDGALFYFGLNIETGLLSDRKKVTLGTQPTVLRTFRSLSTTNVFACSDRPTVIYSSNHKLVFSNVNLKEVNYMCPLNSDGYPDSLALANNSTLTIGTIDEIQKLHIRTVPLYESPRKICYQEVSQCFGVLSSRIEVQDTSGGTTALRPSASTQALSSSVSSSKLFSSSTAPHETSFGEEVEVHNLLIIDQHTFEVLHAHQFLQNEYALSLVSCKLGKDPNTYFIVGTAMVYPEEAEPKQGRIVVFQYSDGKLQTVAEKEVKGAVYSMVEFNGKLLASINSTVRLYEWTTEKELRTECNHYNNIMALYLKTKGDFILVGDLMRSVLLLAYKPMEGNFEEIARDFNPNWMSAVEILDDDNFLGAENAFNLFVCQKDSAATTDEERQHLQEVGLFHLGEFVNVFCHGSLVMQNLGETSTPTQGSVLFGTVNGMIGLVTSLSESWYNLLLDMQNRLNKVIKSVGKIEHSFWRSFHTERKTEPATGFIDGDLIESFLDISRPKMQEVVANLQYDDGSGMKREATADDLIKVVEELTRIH
Sequence of NEK7 (Q8TDX7 whole entry): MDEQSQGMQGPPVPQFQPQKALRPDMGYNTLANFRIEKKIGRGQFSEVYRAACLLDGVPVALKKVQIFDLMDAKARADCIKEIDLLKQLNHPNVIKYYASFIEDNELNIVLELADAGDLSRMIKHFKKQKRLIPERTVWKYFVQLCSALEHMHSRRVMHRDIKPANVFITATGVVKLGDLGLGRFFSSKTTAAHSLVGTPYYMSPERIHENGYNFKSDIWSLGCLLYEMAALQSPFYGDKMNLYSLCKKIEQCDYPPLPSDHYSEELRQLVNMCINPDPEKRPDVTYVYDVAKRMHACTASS
Sequence of NEK7 (Q96SW2 whole entry): as the sequence (Q96SW2 whole entry) above
Sequence of NEK7 (Q16531 2-1140 partner): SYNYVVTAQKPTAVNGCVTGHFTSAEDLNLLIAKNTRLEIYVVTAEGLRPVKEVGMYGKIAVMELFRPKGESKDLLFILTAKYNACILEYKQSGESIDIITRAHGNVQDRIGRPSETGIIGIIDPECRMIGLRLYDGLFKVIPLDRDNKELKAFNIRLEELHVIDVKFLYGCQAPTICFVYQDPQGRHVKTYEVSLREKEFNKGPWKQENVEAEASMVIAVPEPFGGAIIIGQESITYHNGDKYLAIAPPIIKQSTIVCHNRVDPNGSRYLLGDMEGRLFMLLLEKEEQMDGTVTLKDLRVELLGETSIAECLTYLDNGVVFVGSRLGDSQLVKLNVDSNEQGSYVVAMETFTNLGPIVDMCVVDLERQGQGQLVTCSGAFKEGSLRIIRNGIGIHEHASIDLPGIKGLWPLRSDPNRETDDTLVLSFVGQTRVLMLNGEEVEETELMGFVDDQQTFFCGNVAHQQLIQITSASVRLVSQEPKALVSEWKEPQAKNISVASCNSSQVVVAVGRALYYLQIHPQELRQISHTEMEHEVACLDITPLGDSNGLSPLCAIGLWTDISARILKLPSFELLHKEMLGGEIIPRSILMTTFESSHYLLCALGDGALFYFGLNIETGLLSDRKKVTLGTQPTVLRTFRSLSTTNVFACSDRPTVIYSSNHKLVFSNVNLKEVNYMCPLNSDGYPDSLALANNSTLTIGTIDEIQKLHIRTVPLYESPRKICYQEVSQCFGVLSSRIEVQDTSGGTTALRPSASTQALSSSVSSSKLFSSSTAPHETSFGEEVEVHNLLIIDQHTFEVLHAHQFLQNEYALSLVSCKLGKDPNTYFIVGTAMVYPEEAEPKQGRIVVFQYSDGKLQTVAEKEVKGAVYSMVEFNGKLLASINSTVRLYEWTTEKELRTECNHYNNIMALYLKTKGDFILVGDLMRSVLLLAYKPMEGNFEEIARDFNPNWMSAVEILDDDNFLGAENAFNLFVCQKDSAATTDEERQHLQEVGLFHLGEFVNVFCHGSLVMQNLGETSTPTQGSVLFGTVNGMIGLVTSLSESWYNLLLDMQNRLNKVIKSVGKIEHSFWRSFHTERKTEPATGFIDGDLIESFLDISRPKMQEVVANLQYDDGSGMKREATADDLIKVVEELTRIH

Structure (SMILES) | pEC50 (CRBN-DDB1) | pEC50 (CRBN-DDB1; HTRF class, Cereblon binding) | Dmax (NEK7; read-out: NEK7 NanoBiT Dmax) | Dmax (NEK7; [1]) | DC50 (NEK7; read-out: NEK7 NanoBiT DC50) | DC50 (NEK7; [2])
CC(C)(C(=O)NCc1cc(Cl)c(C2CCC(=O)NC2=O)c(Cl)c1)c1ccc2c(c1)CNS2(=O)=O (stereo not drawn) [Compound 40] | 7.00 | ≥ 7.00 | 93% | > 75% | 0.008 µM | ≤ 0.1 µM
CC(C)(C(=O)NCc1cc(Cl)c(C2CCC(=O)NC2=O)c(Cl)c1)c1cnc(CO)cn1 (stereo not drawn) [Compound 206] | 7.00 | 6.00 to 7.00 | 85% | > 75% | 0.018 µM | ≤ 0.1 µM
Cc1nnc(C(C)(C)C(=O)NCc2cc(Cl)c([C@@H]3CCC(=O)NC3=O)c(Cl)c2)o1 (single isomer, unassigned) [Compound 224] | 7.05 | ≥ 7.00 | 77% | > 75% | 0.032 µM | ≤ 0.1 µM
CC(C)(C(=O)NCc1ccc(C2CCC(=O)NC2=O)c(Cl)c1)c1ccccc1F (stereo not drawn) [Compound 24] | 6.49 | 6.00 to 7.00 | 74% | 50 to 75% | 0.076 µM | ≤ 0.1 µM
COc1cnc(C(C)(C)C(=O)NCc2cc(F)c(C3CCC(=O)NC3=O)c(Cl)c2)cn1 (stereo not drawn) [Compound 251] | 7.10 | ≥ 7.00 | 92% | > 75% | 0.004 µM | ≤ 0.1 µM
CC(C)(C(=O)NCc1cc(Cl)c(C2CCC(=O)NC2=O)c(Cl)c1)c1cnc2ncsc2c1 (stereo not drawn) [Compound 52] | 7.05 | ≥ 7.00 | 67% | 50 to 75% | 0.059 µM | ≤ 0.1 µM
COCc1cnc(C(C)(C)C(=O)NCc2cc(Cl)c(C3CCC(=O)NC3=O)c(Cl)c2)nc1 (stereo not drawn) [Compound 183] | 6.43 | 6.00 to 7.00 | 71% | 50 to 75% | 0.056 µM | ≤ 0.1 µM
Cn1ccc2cc(C(C)(C)C(=O)NCc3cc(Cl)c(C4CCC(=O)NC4=O)c(Cl)c3)ccc21 (stereo not drawn) [Compound 90] | 7.30 | ≥ 7.00 | 94% | > 75% | 0.004 µM | ≤ 0.1 µM
CNS(=O)(=O)c1ccc(C(C)(C)C(=O)NCc2cc(Cl)c(C3CCC(=O)NC3=O)c(Cl)c2)cc1 (stereo not drawn) [Compound 61] | 7.22 | ≥ 7.00 | 97% | > 75% | 0.002 µM | ≤ 0.1 µM
CC(C)(C(=O)NCc1cc(Cl)c(C2CCC(=O)NC2=O)c(Cl)c1)c1cccc(NS(C)(=O)=O)c1 (stereo not drawn) [Compound 54] | 7.22 | ≥ 7.00 | 97% | > 75% | 0.001 µM | ≤ 0.1 µM
O=C1CCC(c2c(Cl)cc(CNC(=O)C3(c4ccncc4)CCCC3)cc2Cl)C(=O)N1 (stereo not drawn) [Compound 143, N-(3,5-dichloro-4-(2,6-dioxopiperidin-3-yl)benzyl)-1-(pyridin-4-yl)cyclopentane-1-carboxamide] | 7.40 | ≥ 7.00 | 92% | > 75% | 0.003 µM | ≤ 0.1 µM
CC(C)(C(=O)NCc1cc(Cl)c(C2CCC(=O)NC2=O)c(Cl)c1)c1cc2cccnc2cn1 (stereo not drawn) [Compound 190] | 7.05 | ≥ 7.00 | 90% | > 75% | 0.006 µM | ≤ 0.1 µM
CC(F)(F)c1cnc(C(C)(C)C(=O)NCc2cc(F)c(C3CCC(=O)NC3=O)c(Cl)c2)cn1 (stereo not drawn) [Compound 255] | 7.05 | ≥ 7.00 | 54% | 50 to 75% | 0.464 µM | 0.1 to 1 µM
Cn1c(F)cc(C(C)(C)C(=O)NCc2cc(Cl)c(C3CCC(=O)NC3=O)c(Cl)c2)cc1=O (stereo not drawn) [Compound 172] | 6.72 | 6.00 to 7.00 | 97% | > 75% | 0.002 µM | ≤ 0.1 µM
CC(C)(C(=O)NCc1cc(F)c(C2CCC(=O)NC2=O)c(Cl)c1)c1ccc(OC(F)F)nn1 (stereo not drawn) [Compound 276] | 6.72 | 6.00 to 7.00 | 79% | > 75% | 0.033 µM | ≤ 0.1 µM
CC(C)(C(=O)NCc1cc(Cl)c(C2CCC(=O)NC2=O)c(Cl)c1)c1nccc(C(F)(F)F)n1 (stereo not drawn) [Compound 174] | 6.74 | 6.00 to 7.00 | 77% | > 75% | 0.03 µM | ≤ 0.1 µM
Cc1cc(C(C)(C)C(=O)NCc2cc(Cl)c(C3CCC(=O)NC3=O)c(Cl)c2)cc(=O)n1C (stereo not drawn) [Compound 53] | 6.72 | 6.00 to 7.00 | 92% | > 75% | 0.011 µM | ≤ 0.1 µM
CC(C)(C(=O)NCc1cc(F)c(C2CCC(=O)NC2=O)c(Cl)c1)c1ccc(C(F)F)nn1 (stereo not drawn) [Compound 280] | 6.54 | 6.00 to 7.00 | 60% | 50 to 75% | 0.143 µM | 0.1 to 1 µM
CC(C)(C(=O)NCc1cc(Cl)c(C2CCC(=O)NC2=O)c(Cl)c1)c1cccnc1 (stereo not drawn) [Compound 99] | 7.10 | ≥ 7.00 | 87% | > 75% | 0.008 µM | ≤ 0.1 µM
CC(F)(F)c1cnc(C(C)(C)C(=O)NCc2cc(Cl)c(C3CCC(=O)NC3=O)c(Cl)c2)cn1 (stereo not drawn) [Compound 263] | 7.00 | 6.00 to 7.00 | 90% | > 75% | 0.007 µM | ≤ 0.1 µM
CC(C)(C(=O)NCc1cc(Cl)c(C2CCC(=O)NC2=O)c(Cl)c1)c1ccc(C(F)F)cn1 (stereo not drawn) [Compound 4, N-(3,5-dichloro-4-(2,6-dioxopiperidin-3-yl)benzyl)-2-(5-(difluoromethyl)pyridin-2-yl)-2-methylpropanamide] | 6.92 | 6.00 to 7.00 | 94% | > 75% | 0.003 µM | ≤ 0.1 µM
CC(C)(C(=O)NCc1cc(Cl)c(C2CCC(=O)NC2=O)c(Cl)c1)c1ccc(C#N)cc1 (stereo not drawn) [Compound 29] | 7.10 | ≥ 7.00 | 97% | > 75% | 0.0004 µM | ≤ 0.1 µM
O=C1CCC(c2c(Cl)cc(CNC(=O)C3(c4ccccc4)CCOC3)cc2Cl)C(=O)N1 (stereo not drawn) [Compound 127, N-(3,5-dichloro-4-(2,6-dioxopiperidin-3-yl)benzyl)-3-phenyltetrahydrofuran-3-carboxamide] | 7.40 | ≥ 7.00 | 90% | > 75% | 0.005 µM | ≤ 0.1 µM
CC(C)(C(=O)NCc1cc(Cl)c(C2CCC(=O)NC2=O)c(Cl)c1)c1nocc1C1CC1 (stereo not drawn) [Compound 198] | 6.89 | 6.00 to 7.00 | 83% | > 75% | 0.022 µM | ≤ 0.1 µM
CC(C)(C(=O)NCc1cc(Cl)c(C2CCC(=O)NC2=O)c(Cl)c1)c1cc2ncccc2cn1 (stereo not drawn) [Compound 2, N-(3,5-dichloro-4-(2,6-dioxopiperidin-3-yl)benzyl)-2-methyl-2-(1,6-naphthyridin-7-yl)propanamide] | 6.96 | 6.00 to 7.00 | 94% | > 75% | 0.003 µM | ≤ 0.1 µM
